Data: patent US20250326748A1, “COMPOUNDS AND METHODS FOR MODULATING SPLICING” (REMIX THERAPEUTICS INC., priority 2022, published 2025)
pIC50: −log10 of the molar value. Like-named read-outs stand apart in the source and are kept apart here.

How the values were obtained:
HTT mRNA = assay: Splicing RT-qPCR assay, HTT canonical (CJ) and alternative (AJ) junction mRNA; format: cell-based, human; conditions: Homo sapiens; for pIC50: canonical junction mRNA; for AC50: alternative junction mRNA, read-out: HTT AJ (AC50, increase in AJ mRNA)
In short: (§1)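 Treatment of A673 or K562 cultures with compounds (eleven-point titration, highest final 10 uM, ≤0.25% DMSO) ran one day at 37 °C. Afterwards cells were lysed directly in the well, and cDNA synthesis coupled with qPCR measured CJ and AJ isoform levels against a reference transcript.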

SMN2 mRNA = assay: Splicing RT-qPCR panel, SMN2 canonical junction (CJ) mRNA; format: cell-based, human; conditions: Homo sapiens, read-out: SMN2 CJ (decrease in CJ mRNA levels, IC50)
Protocol: Compounds described herein were used to modulate RNA transcript abundance in cells. The expression of a target mRNA was measured by detecting the formation of an exon-exon junction in the canonical transcript (CJ). A compound mediated exon-inclusion event was detected by observing an increase in formation of a new junction with an alternative exon (AJ). Real-time qPCR assays were used to detect these splicing switches and interrogate the potency of various compounds towards different target genes. A high-throughput real time quantitative PCR (RT-qPCR) assay was developed to measure these two isoforms of the mRNA (CJ and AJ) for exemplary genes, such as HTT, SMN2, and MYB, together with a control housekeeping gene, GAPDH or GUSB or PPIA, used for normalization. Briefly, the A673 or K562 cell line was treated with various compounds described herein (e.g., compounds of Formula (D). After treatment, the levels of the HTT, MYB, or SMN2 mRNA targets were determined from each sample of cell lysate by cDNA synthesis followed by qPCR.
The A673 cell line was cultured in DMEM with 10% FBS. Cells were diluted with full growth media and plated in a 96-well plate (15,000 cells in 100 ul media per well). The plate was incubated at 37° C. with 5% CO2 for 24 hours to allow cells to adhere. An 11-point 3-fold serial dilution of the compounds was made in DMSO then diluted in media in an intermediate plate. Compounds were transferred from the intermediate plate to the cell plate with the top dose at a final concentration of 10 uM in the well. Final DMSO concentration was kept at or below 0.25%. The cell plate was returned to the incubator at 37° C. with 5% CO2 for an additional 24 hours.
The K562 cell line was cultured in IMDM with 10% FBS. For K562, cells were diluted with full growth media and plated in either a 96-well plate (50,000 cells in 50 uL media per well) or a 384-well plate (8,000-40,000 cells in 45 uL media per well). An 11-point 3-fold serial dilution of the compounds were made in DMSO then diluted in media in an intermediate plate. Compound was transferred from the intermediate plate to the cell plate with the top dose at a final concentration of 10 uM in the well. Final DMSO concentration was kept at or below 0.25%. Final volume was 100 uL for 96-well plate and 50 uL for 384-well plate. The cell plate was then placed in an incubator at 37° C. with 5% CO2 for 24 hours.
The cells were then gently washed with 50 uL-100 uL cold PBS before proceeding to addition of lysis buffer. 30 uL-50 μL of room temperature lysis buffer with DNAse I (and optionally RNAsin) was added to each well. Cells were shaken/mixed thoroughly at room temperature for 5-10 minutes for lysis to take place and then 3 uL-5 μL of room temperature stop solution was added and wells were shaken/mixed again. After 2-5 minutes, the cell lysate plate was transferred to ice for RT-qPCR reaction setup. The lysates could also be frozen at −80° C. for later use.
In some cases, a direct lysis buffer was used. An appropriate volume of 3× lysis buffer (10 mM Tris, 150 mM NaCl, 1.5%-2.5% Igepal and 0.1-1 U/uL RNAsin, pH 7.4) was directly added to either K562 or A673 cells in media and mixed by pipetting 3 times. The plates were then incubated at room temperature with shaking/rocking for 20-50 minutes to allow for lysis to take place. After this time, the cell lysate plate was transferred to ice to set up for the RT-qPCR reactions. The lysates could also be frozen at −80° C. for later use.
To set up 10 uL RT-qPCR reactions, cell lysates were transferred to 384-well qPCR plates containing the master mix according to the table below. The plates were sealed, gently vortexed, and spun down before the run. The volumes were adjusted accordingly in some instances where the reaction was carried in 20 μL. The table below summarizes the components of the RT-qPCR reactions:
The RT-qPCR reaction was performed using a QuantStudio (ThermoFisher) under the following fast cycling conditions. […]

MYB mRNA = assay: Splicing RT-qPCR assay, MYB canonical (CJ) and alternative (AJ) junction mRNA; format: cell-based, human; conditions: Homo sapiens; for pIC50: canonical junction mRNA; for AC50: alternative junction mRNA, read-out: MYB AJ (AC50, increase in AJ mRNA)
In short: as §1

Target C mRNA = assay: Splicing RT-qPCR panel, Target C canonical junction (CJ) mRNA; format: cell-based, human; conditions: Homo sapiens, read-out: Target C CJ (decrease in CJ mRNA levels, IC50)
In short: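 A673 cells (DMEM, 10% FBS) or K562 cells (IMDM, 10% FBS) treated 24 h at 37 °C with an 11-point 3-fold dilution, top 10 uM, DMSO ≤0.25%. Canonical-junction mRNA quantified in lysates by RT-qPCR, normalised to GAPDH, GUSB or PPIA and to DMSO (2^−ΔΔCt), then converted to % response.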

K562 cells = assay: Cell viability, Cell Titer Glo 2.0 assay, K562; conditions: 72 hours
Protocol: Compounds described herein were screened for toxicity in K562 (human chronic myelogenous leukemia) and SH-SY5Y (human neuroblastoma) cells using a Cell Titer Glo 2.0 assay.
• Promega CellTiter-Glo® 2.0 Cell Viability Assay (cat #G9241) • Corning 384-well TC-treated microplates (cat #3570)
Cells were plated at 500 cells/well (K562 cells) in 45 μL of IMDM supplemented with 10% FBS in a 384-well opaque plate. Wells containing only medium were used as a blank control. Test compounds (e.g., compounds of Formula (I) or (II)) were first serially diluted in DMSO then diluted 1:100 with IMDM+10% FBS. The final concentration of DMSO was 0.1% in each well. The cells were incubated for 72 hours at 37° C. and 5% CO2 before assaying with Cell Titer Glo 2.0 reagent.

[1] = 24 h, RT-qPCR, A673 or K562 cells, 24 hours treatment, read-out: HTT CJ (IC50, decrease in CJ mRNA)
[2] = qPCR panel, read-out: HTT CJ (decrease in CJ mRNA levels, IC50)
[3] = RT-qPCR, A673 or K562 cells, 24 hours treatment
[4] = qPCR panel, read-out: MYB CJ (decrease in CJ mRNA levels, IC50)
[5] = RT-qPCR, A673 or K562 cells, 24 hours treatment, read-out: MYB CJ (IC50, decrease in CJ mRNA)

| SMILES | pIC50 (HTT mRNA; [1]) | pIC50 (HTT mRNA; [2]) | AC50 (HTT mRNA; [3]) [nM] | pIC50 (SMN2 mRNA) | pIC50 (MYB mRNA; [4]) | AC50 (MYB mRNA; [3]) [nM] | pIC50 (MYB mRNA; [5]) | pIC50 (Target C mRNA) | Effect on Cell Viability, K562 (K562 cells) |
| --- | --- | --- | --- | --- | --- | --- | --- | --- | --- |
| C[C@H]1CN(c2cnc3nc(-c4cc(F)c5nn(C)cc5c4)ccc3c2)CCN1 [Compound 373, 2-(7-fluoro-2-methylindazol-5-yl)-6-[(3S)-3-methylpiperazin-1-yl]-1,8-naphthyridine] | 5.00 to 6.00 | 5.00 to 6.00 | 1000 to 10000 | > 7.00 | 6.00 to 7.00 | 100 to 1000 | 6.00 to 7.00 | 5.00 to 6.00 | B (100-1000 nM) |
| C[C@H]1CN(c2cnc3nc(-c4cc5cn(C)nc5cc4O)cc(Cl)c3c2)CC2(CC2)N1 [Compound 379] | 5.00 to 6.00 | 5.00 to 6.00 | 1000 to 10000 | > 7.00 | 6.00 to 7.00 | 100 to 1000 | 6.00 to 7.00 | < 5.00 | B (100-1000 nM) |
| Cc1c(O)c(-c2ccc3c(Cl)c(N4C[C@@H](C)N[C@@H](C)C4)cnc3n2)cc2cn(C)nc12 [Compound 390] | 5.00 to 6.00 | 5.00 to 6.00 | > 10000 | > 7.00 | 6.00 to 7.00 | < 100 | > 7.00 | 5.00 to 6.00 | A (<100 nM) |
| Cc1c(O)c(-c2ccc3c(Cl)c(N4C[C@H](C)N[C@@H](C)C4)cnc3n2)cc2cn(C)nc12 [Compound 394] | 6.00 to 7.00 | 6.00 to 7.00 | 100 to 1000 | > 7.00 | > 7.00 | < 100 | > 7.00 | 5.00 to 6.00 | B (100-1000 nM) |
| C[C@H]1CN(c2cnc3nc(-c4cc(F)c5nn(C)cc5c4)cc(Cl)c3c2)CC2(CC2)N1 [Compound 396] | 5.00 to 6.00 | 5.00 to 6.00 | 1000 to 10000 | > 7.00 | 6.00 to 7.00 | 100 to 1000 | 6.00 to 7.00 | 5.00 to 6.00 | C (1000-9999 nM) |
| C[C@@H]1CN(c2cnc3nc(-c4cc(F)c5nn(C)cc5c4)cc(Cl)c3c2)CC2(CC2)N1 [Compound 397] | 5.00 to 6.00 | 5.00 to 6.00 | > 10000 | > 7.00 | 6.00 to 7.00 | 1000 to 10000 | 6.00 to 7.00 | < 5.00 | C (1000-9999 nM) |
| Cc1c(O)c(-c2cc(Cl)c3cc(N4C[C@H](C)NC5(CC5)C4)cnc3n2)cc2cn(C)nc12 [Compound 398] | 6.00 to 7.00 | 6.00 to 7.00 | 100 to 1000 | > 7.00 | > 7.00 | < 100 | > 7.00 | < 5.00 | B (100-1000 nM) |
| Cc1c(O)c(-c2cc(Cl)c3cc(N4C[C@@H](C)NC5(CC5)C4)cnc3n2)cc2cn(C)nc12 [Compound 399] | 5.00 to 6.00 | 5.00 to 6.00 | > 10000 | > 7.00 | > 7.00 | < 100 | > 7.00 | < 5.00 | B (100-1000 nM) |
| Cc1cn2nc(-c3cc(Cl)c4cc(N5C[C@H](C)NC6(CC6)C5)cnc4n3)cc(C)c2n1 [Compound 400] | 5.00 to 6.00 | 5.00 to 6.00 | 1000 to 10000 | > 7.00 | 6.00 to 7.00 | 100 to 1000 | 6.00 to 7.00 | 5.00 to 6.00 | C (1000-9999 nM) |
| Cc1cn2cc(-c3cc(Cl)c4cc(N5C[C@H](C)NC6(CC6)C5)cnc4n3)cc(F)c2n1 [Compound 401] | 5.00 to 6.00 | 5.00 to 6.00 | 1000 to 10000 | > 7.00 | 6.00 to 7.00 | 100 to 1000 | 6.00 to 7.00 | 5.00 to 6.00 | C (1000-9999 nM) |
| Cc1cn2cc(-c3cc(Cl)c4cc(N5C[C@@H](C)NC6(CC6)C5)cnc4n3)cc(F)c2n1 [Compound 402] | < 5.00 | < 5.00 | > 10000 | > 7.00 | 6.00 to 7.00 | 100 to 1000 | 6.00 to 7.00 | < 5.00 | C (1000-9999 nM) |
